Calls of active or inactive are those of the source. The calls are words filed in the database; no cut-off is given here.
Tests used:
MCF7 [1] = test: cells; conditions: Homo sapiens, MCF7, 120 h
MDA-MB-231 [2] = test: cells; conditions: Homo sapiens, MDA-MB-231, 120 h
MCF7 [3] = test: Antiproliferative activity against human MCF7 cells assessed as reduction in cell confluence level at […] after 5 days by microscopy based time-lapse imaging assay; format: functional
[4] = molecular target: Mast/stem cell growth factor receptor Kit (Homo sapiens, UniProt P10721); test: Inhibition of human KIT using poly[Glu,Tyr]4:1 as substrate in presence of [gamma-33P]ATP
[5] = molecular target: Serine/threonine-protein kinase mTOR (Homo sapiens, UniProt P42345); test: Inhibition of human mTOR using poly[Glu,Tyr]4:1 as substrate in presence of [gamma-33P]ATP
[6] = molecular target: Platelet-derived growth factor receptor alpha (Homo sapiens, UniProt P16234); test: Inhibition of human PDGFRalpha using poly[Glu,Tyr]4:1 as substrate in presence of [gamma-33P]ATP
[7] = molecular target: Proto-oncogene tyrosine-protein kinase receptor Ret (Homo sapiens, UniProt P07949); test: Inhibition of human RET using poly[Glu,Tyr]4:1 as substrate in presence of [gamma-33P]ATP
MDA-MB-231 [8] = test: Increase in total SRC in human MDA-MB-231 cells preincubated for 1.5 hrs followed by serum stimulation for 1 hr by Western blot analysis; format: cell-based; conditions: mda-mb-231, 1 h
Danio rerio [9] = organism: Danio rerio; test: Cardiotoxicity in wild-type zebrafish embryos at >10 uM treated for 4 hrs measured after 48 hrs by fluorescent microscopy; format: organism-based; conditions: in vivo
Danio rerio [10] = organism: Danio rerio; test: Toxicity in wild-type zebrafish embryos assessed as mortality at >10 uM treated for 4 hrs measured after 48 hrs by fluorescent microscopy; format: organism-based; conditions: in vivo
[11] = Solubility of the compound in water at pH 2.6; format: physicochemical
[12] = Solubility of the compound in water at pH 7; format: physicochemical
[13] = Half life in nude mouse at 10 mg/kg, […] via oral gavage; format: ADME, organism-based; conditions: in vivo
Danio rerio [14] = organism: Danio rerio; test: Cardiotoxicity in wild-type zebrafish embryos assessed as heart enlargement at 1 to 10 uM treated for 4 hrs measured after 48 hrs by fluorescent microscopy; format: toxicity, organism-based; conditions: in vivo
MCF7 [15] = test: Antiproliferative activity against human MCF7 cells assessed as cell death at […] after 48 to 120 hrs by microscopy based time-lapse imaging assay; format: functional

Mast/stem cell growth factor receptor Kit, sequence (P10721 whole entry): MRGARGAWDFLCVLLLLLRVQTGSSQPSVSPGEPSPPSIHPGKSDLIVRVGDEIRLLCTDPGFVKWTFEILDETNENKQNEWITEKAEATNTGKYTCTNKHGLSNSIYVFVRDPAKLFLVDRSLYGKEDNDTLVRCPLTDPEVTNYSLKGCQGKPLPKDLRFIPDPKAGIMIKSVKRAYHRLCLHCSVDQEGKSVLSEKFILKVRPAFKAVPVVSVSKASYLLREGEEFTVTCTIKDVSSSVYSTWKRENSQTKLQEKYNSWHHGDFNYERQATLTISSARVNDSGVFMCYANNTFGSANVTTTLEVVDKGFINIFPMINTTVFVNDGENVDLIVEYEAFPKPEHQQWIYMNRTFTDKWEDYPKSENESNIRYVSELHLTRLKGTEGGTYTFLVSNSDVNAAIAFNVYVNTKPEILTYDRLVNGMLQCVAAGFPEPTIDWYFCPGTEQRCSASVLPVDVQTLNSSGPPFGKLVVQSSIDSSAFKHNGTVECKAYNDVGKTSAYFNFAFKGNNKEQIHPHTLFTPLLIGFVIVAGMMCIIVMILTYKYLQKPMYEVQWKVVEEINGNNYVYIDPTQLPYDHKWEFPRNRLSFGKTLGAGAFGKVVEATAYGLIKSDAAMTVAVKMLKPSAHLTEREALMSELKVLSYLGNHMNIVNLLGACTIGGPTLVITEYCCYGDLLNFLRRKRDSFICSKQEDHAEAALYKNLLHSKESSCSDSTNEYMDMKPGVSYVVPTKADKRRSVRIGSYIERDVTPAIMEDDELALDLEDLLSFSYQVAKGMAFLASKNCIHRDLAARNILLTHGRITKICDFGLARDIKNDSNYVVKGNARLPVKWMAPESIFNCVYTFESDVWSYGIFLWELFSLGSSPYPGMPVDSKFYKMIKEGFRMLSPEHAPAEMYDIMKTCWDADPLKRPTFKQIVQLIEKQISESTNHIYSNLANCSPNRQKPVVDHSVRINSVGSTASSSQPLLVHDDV
Platelet-derived growth factor receptor alpha, sequence (P16234 whole entry): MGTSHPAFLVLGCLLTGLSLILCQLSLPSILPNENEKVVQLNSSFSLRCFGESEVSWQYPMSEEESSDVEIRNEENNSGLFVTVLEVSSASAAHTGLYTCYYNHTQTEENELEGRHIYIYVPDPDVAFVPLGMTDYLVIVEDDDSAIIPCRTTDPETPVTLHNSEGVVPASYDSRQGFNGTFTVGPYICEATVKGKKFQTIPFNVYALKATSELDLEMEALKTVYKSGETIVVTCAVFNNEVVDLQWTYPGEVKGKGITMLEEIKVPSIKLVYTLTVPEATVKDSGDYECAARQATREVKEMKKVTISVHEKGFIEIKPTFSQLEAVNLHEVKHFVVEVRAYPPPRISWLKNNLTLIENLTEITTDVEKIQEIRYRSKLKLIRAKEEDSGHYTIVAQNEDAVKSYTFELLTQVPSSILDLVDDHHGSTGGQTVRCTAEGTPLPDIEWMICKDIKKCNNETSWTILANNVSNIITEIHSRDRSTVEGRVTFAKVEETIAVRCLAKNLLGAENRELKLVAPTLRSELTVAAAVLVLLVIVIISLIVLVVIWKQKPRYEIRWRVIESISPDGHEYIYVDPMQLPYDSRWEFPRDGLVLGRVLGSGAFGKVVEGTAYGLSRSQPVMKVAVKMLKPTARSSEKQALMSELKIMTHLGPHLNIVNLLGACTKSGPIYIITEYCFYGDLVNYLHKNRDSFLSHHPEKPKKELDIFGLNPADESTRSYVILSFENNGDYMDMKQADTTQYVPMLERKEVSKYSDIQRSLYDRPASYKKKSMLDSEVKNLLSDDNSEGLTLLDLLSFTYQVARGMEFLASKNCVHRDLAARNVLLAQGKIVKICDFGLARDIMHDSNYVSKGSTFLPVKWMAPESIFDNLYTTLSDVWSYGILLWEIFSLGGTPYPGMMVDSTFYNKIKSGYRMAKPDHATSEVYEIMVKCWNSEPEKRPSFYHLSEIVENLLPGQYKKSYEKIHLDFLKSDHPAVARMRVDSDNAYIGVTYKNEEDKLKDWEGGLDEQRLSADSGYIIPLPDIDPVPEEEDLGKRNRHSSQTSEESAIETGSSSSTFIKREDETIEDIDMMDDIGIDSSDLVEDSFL
Proto-oncogene tyrosine-protein kinase receptor Ret, sequence (P07949 whole entry): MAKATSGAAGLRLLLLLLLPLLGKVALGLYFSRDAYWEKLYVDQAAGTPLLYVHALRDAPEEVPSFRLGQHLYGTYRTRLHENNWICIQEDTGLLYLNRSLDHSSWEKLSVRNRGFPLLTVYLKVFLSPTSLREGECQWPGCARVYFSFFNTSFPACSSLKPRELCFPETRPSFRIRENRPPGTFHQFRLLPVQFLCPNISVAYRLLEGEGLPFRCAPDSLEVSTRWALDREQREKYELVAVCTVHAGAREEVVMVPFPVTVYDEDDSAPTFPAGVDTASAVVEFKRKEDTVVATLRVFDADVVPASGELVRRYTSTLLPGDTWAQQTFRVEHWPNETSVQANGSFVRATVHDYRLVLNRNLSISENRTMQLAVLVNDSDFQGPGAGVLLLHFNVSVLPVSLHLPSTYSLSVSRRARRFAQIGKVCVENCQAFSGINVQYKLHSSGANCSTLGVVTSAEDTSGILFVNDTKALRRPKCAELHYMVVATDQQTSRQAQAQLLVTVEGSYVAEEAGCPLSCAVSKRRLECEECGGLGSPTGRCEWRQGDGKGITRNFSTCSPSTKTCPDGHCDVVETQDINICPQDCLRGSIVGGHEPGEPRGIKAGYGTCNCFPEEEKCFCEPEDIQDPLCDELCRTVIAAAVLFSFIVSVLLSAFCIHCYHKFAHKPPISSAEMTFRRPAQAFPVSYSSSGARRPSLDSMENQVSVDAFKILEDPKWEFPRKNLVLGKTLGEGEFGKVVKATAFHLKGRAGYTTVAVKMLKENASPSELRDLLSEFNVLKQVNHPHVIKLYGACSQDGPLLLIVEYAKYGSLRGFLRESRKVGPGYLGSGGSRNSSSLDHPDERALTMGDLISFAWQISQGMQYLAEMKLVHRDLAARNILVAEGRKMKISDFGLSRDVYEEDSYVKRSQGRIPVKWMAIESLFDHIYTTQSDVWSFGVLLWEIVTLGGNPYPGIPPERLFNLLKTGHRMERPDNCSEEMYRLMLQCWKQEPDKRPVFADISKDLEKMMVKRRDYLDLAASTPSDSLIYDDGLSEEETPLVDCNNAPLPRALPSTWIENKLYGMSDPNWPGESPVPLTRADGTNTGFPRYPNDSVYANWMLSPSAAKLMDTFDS

In the case of `CCOC(Cn1nc(-c2ccc(OC)c(OC)c2)c2c(N)ncnc21)OCC`, the EC50 (MCF7 [1]) is reported as 6.1 µM.

With `COc1cc(-c2nn(CCN3CCC(N(C)C)CC3)c3ncnc(N)c23)ccc1CC(=O)N1CCCC1` the EC50 (MDA-MB-231 [2]) was greater than 100 µM.

With `Cc1ccc(-c2nn(CCN3CCC(CN(C)C)CC3)c3ncnc(N)c23)cc1` the Activity (MCF7 [3]) was “Active”, the IC50 [4] was greater than 10 µM and the IC50 [5] was greater than 10 µM. It also gave an IC50 [6] greater than 10 µM and an IC50 [7] greater than 10 µM.

In the case of `CN(C)C1CCN(CCn2nc(-c3cccc(NC(=O)OC(C)(C)C)c3)c3c(N)ncnc32)CC1`, the EC50 (MDA-MB-231 [2]) is reported as 26.8 µM.

Molecule `CN(C)C1CCN(CCn2nc(-c3ccc4c(ccn4C(=O)OC(C)(C)C)c3)c3c(N)ncnc32)CC1` has an EC50 (MDA-MB-231 [2]) of 4.15 µM.

For `Cc1nc(Nc2ncc(C(=O)Nc3c(C)cccc3Cl)s2)cc(N2CCN(CCO)CC2)n1.O` [DASATINIB], the Activity (MDA-MB-231 [8]) was “Dose-dependent effect”, the Activity (Danio rerio [9]) was “Toxic” and the Activity (Danio rerio [10]) was “Toxic”. It also gave a solubility [11] of 18 mg/mL, a solubility [12] of less than 0.001 mg/mL and a half-life [13] of 54 min. For the same molecule, the Activity (Danio rerio [14]) was “Toxic”.

With `CN(C)CC1CCN(CCn2nc(C#Cc3ccccc3)c3c(N)ncnc32)CC1` the EC50 (MCF7 [1]) was 13.5 µM.

In the case of `CN(C)C1CCN(CCn2nc(-c3ccc(NC(=O)OC(C)(C)C)nc3)c3c(N)ncnc32)CC1`, the EC50 (MDA-MB-231 [2]) is reported as 17.7 µM.

With `CN(C)CC1CCN(CCn2nc(-c3cnc4[nH]ccc4c3)c3c(N)ncnc32)CC1` the Activity (MCF7 [15]) was “Active”, the IC50 [4] was greater than 10 µM and the IC50 [5] was 8.57 µM. It also gave an IC50 [6] greater than 10 µM.

`CCOC(Cn1nc(C#Cc2ccccc2)c2c(N)ncnc21)OCC` gave an EC50 (MCF7 [1]) of 5 µM.

With `Cc1ccc(-c2nn(CCN3CCC(CCN(C)C)CC3)c3ncnc(N)c23)cc1` the Activity (MCF7 [3]) was “Active”, the IC50 [4] was greater than 10 µM and the IC50 [5] was greater than 10 µM. It also gave an IC50 [6] greater than 10 µM and an IC50 [7] greater than 10 µM.

`CCOC(Cn1nc(-c2cccc(O)c2)c2c(N)ncnc21)OCC` showed an EC50 (MCF7 [1]) of 7.6 µM.

For `CCOC(Cn1nc(-c2ccc(C)cc2)c2c(N)ncnc21)OCC`, the EC50 (MCF7 [1]) was 30.9 µM.

With `CCOC(Cn1nc(-c2ccc3ncccc3c2)c2c(N)ncnc21)OCC` the EC50 (MCF7 [1]) was 263 µM.

Molecule `COc1cc(-c2nn(CCN3CCC(N(C)C)CC3)c3ncnc(N)c23)ccc1NCc1cccnc1` has an EC50 (MDA-MB-231 [2]) of 4.14 µM.

With `Cc1ccc(-c2nn(CCN3CCC(N(C)C)CC3)c3ncnc(N)c23)cc1` the Activity (MCF7 [3]) was “Active”, the IC50 [4] was greater than 10 µM and the IC50 [5] was greater than 10 µM. For the same molecule, the IC50 [6] was greater than 10 µM and the IC50 [7] was 6.58 µM.

`COc1ccc(-c2nn(CCN3CCC(N(C)C)CC3)c3ncnc(N)c23)cc1NC(=O)OC(C)(C)C` showed an EC50 (MDA-MB-231 [2]) of 28.6 µM.

Molecule `COc1cc(-c2nn(CCN3CCC(N(C)C)CC3)c3ncnc(N)c23)ccc1NCc1ccccn1` has an EC50 (MDA-MB-231 [2]) of 40.2 µM.

Reference: ChEMBL document CHEMBL3822371, “Rapid Discovery and Structure-Activity Relationships of Pyrazolopyrimidines That Potently Suppress Breast Cancer Cell Growth via SRC Kinase Inhibition with Exceptional Selectivity over ABL Kinase” (J Med Chem, 2016)
